From patent US9353088B2, “Crystalline pharmaceutical and methods of preparation and use thereof” (SARcode Bioscience Inc., priority 2009, dated 2016)
Values joined by “and” are separate entries in the source; they are usually repeats but may differ in a detail not shown here. Equal entries are not always repeated. Where two headings read alike, the source gives them in different places.

How the values were obtained:
[1] = 13-week ocular toxicity study with 4-week recovery; conditions: 13-week ocular (3%)
[2] = dog, in vivo
[3] = In-vitro percutaneous absorption following topical application
[4] = 13-week IV toxicity study with 4-week recovery; assay type: in vivo, rats; conditions: Day 1
[5] = Pilot ocular tolerance of topically administered compound in dogs-PK; assay type: in vivo; conditions: up to 10% strength at 3 doses/day
[6] = Single dose ocular and IV ADME with [14C]-compound, whole body autoradiography; assay type: in vivo, rats; conditions: for fecal excretion of administered radioactivity: 0 to 168 hours postdose; for Concentration, Aqueous humor / Concentration, Conjunctiva (bulbar) / Concentration, Conjunctiva (palpebral) / Concentration, Cornea / Concentration, Iris-ciliary body / Concentration, Lens / Concentration, Optic Nerve / Concentration, Retina and Choroid (with RPE) / Concentration, Sclera / Concentration, Vitreous Humor: ocular dosing
[7] = Pilot mini-pig dermal study; assay type: in vivo, mini-pigs; conditions: DMSO, gel, ointment, lotion at 1%, dermal TID for 7 days
[8] = system: Keratoconjunctivitis Sicca (KCS); experiment: Canine keratoconjunctivitis sicca (KCS) study; assay type: in vivo, dog; conditions: for Schirmer Tear Test (OS), Mean: Dog #7 not included
Source text: If dogs had been treated with topical CsA or tacrolimus in the previous six months, they were not enrolled. […] Animals were subjected to an ocular examination once during the initial visit and during five visits over sixteen weeks of the study (Weeks, 2, 4, 8, 12 and 16). The last OE was approximately four weeks after the last dose of the compound of Formula I and after one month of CsA treatment. The adnexa and anterior portions of both eyes were examined using an indirect opthalmoscope. The eyes were dilated with a mydriatic when applicable, to allow evaluation of the lens and fundus, including the retina. An evaluation using a modified McDonald-Shaddock scoring system was performed in conjunction with the slitlamp ocular examinations at each interval. Tears were measured using STT strips during the initial visit and each of the five follow-up visits on Weeks 2, 4, 8, 12 and 16. One strip of STT paper was used for each eye for each interval. […] The length, in mm, of wetting below the notch of the paper was recorded. Fluorescein and rose bengal staining was performed at the each of the initial and follow up examinations. Intraocular pressure measurements (IOPs) were performed using a Tono-Pet Vet® in conjunction with each of the OEs. Digital ocular images were taken before and after staining (with fluorescein and rose bengal) during each of the OEs. Conjunctival biopsies were taken at the initial (pretreatment) visit and the Week 12 visit. The second biopsy was taken more lateral (approx. 1 mm) to the initial biopsy. Following appropriate preparation a small conjunctival biopsy was taken from the ventral fornix of each eye.

[9] = Tear PK after single topical ocular instillation; conditions: single topical ocular instillation, 0.1, 1.0 or 3.0%
[10] = Solubility studies for dermal formulations; assay type: physicochemical
[11] = CNS effects, single bolus IV injection; assay type: in vivo, rats; conditions: 10.0 mg/kg IV, 1 minute to 6 hours postdose, 2/6 animals
Source text: No effect on any other parameters was observed.

[12] = 0.5 hour, topical ocular 1 mg/eye
[13] = 0.5 hour, topical ocular 1 mg/eye, above upper limit of quantification
[14] = 8 hours postdose, topical ocular 1 mg/eye
[15] = 24 hours postdose, topical ocular 1 mg/eye
[16] = Week 1 (initial visit), individual dogs, Dog ID 1-7 = r5-r11
[17] = Week 2, individual dogs, 1% solution TID, listed as compound of Formula I
[18] = Week 4, individual dogs, 1% solution TID, listed as compound of Formula I
[19] = Week 8, individual dogs, 1% solution TID, listed as compound of Formula I
[20] = Week 12, individual dogs, 1% solution TID, listed as compound of Formula I
[21] = Week 16, individual dogs, four weeks after last dose and after one month of CsA
[22] = Weeks 1-12, individual dogs 1-7 = r6-r12
[23] = during the 12-week treatment period

Structure (SMILES): CS(=O)(=O)c1cccc(C[C@H](NC(=O)c2c(Cl)cc3c(c2Cl)CCN(C(=O)c2ccc4ccoc4c2)C3)C(=O)O)c1 [Compound of Formula I]
- NOAEL [1]: 1.05 mg/eye/3× per day
- level in vitreous fluid [2]: not detected
- dose penetration into dermis ([3]; determined using [14C]-compound): 2-4%
- compound level in dermis ([3]; skin transport studies, microtomed human skin, 1% (w/w) prototypes): greater than 10 micromolar
- Cmax ([4]; daily IV bolus 10 mg/kg): 1045.3 ng/mL
- AUC0-n ([4]; daily IV bolus 30 mg/kg): 2345.5 ng·h/mL
- Cmax ([4]; daily IV bolus 30 mg/kg): 5117.3 ng/mL
- ocular safety and tolerability [5]: safe and well tolerated
- radioactivity concentration, eye [6, 12]: 18100 ng equivalents [^14C]-compound of Formula I/g
- radioactivity concentration, kidney [6, 12]: 151 ng equivalents [^14C]-compound of Formula I/g
- radioactivity concentration, liver [6, 12]: 272 ng equivalents compound of Formula I/g
- radioactivity concentration, uveal tract [6, 12]: 9330 ng equivalents [^14C]-compound of Formula I/g
- radioactivity concentration, esophageal contents ([6]; 0.5 hour, topical ocular 1 mg/eye, male Sprague Dawley, above upper limit of quantification): 399000 ng equivalents [^14C]-compound of Formula I/g
- radioactivity concentration, nasal turbinates [6, 13]: 352000 ng equivalents [^14C]-compound of Formula I/g
- radioactivity concentration, small intestinal contents [6, 13]: 349000 ng equivalents [^14C]-compound of Formula I/g
- radioactivity concentration, cecum contents [6, 14]: 57600 ng equivalents [^14C]-compound of Formula I/g
- radioactivity concentration, large intestinal contents [6, 14]: 133000 ng equivalents [^14C]-compound of Formula I/g
- radioactivity concentration, uveal tract ([6]; 12 hours postdose, topical ocular 1 mg/eye): 610 ng equivalents [^14C]-compound of Formula I/g
- radioactivity concentration, cecum contents [6, 15]: 5870 ng equivalents [^14C]-compound of Formula I/g
- radioactivity concentration, large intestinal contents [6, 15]: 18000 ng equivalents [^14C]-compound of Formula I/g
- fecal excretion of administered radioactivity ([6]; IV administration 10 mg/kg): ~95%
- decline of radioactivity concentration, esophageal contents ([6]; at 2 hours postdose): ~100 fold
- decline of radioactivity concentration, esophagus ([6]; at 2 hours postdose): approximately 50 fold
- levels in conjunctiva/cornea ([6]; for 16 hrs, rat): > 100 nM
- fecal excretion of administered radioactivity ([6]; ocular administration 1 mg/eye): approximately 60%
- Concentration, Aqueous humor ([6]; 0.5 hour after administration): 1770 ng Equivalents [^14C]-compound of Formula I/g tissue
- Concentration, Conjunctiva (bulbar) ([6]; 0.5 hour after administration): 31500 ng Equivalents [^14C]-compound of Formula I/g tissue
- Concentration, Conjunctiva (palpebral) ([6]; 0.5 hour after administration): 26300 ng Equivalents [^14C]-compound of Formula I/g tissue
- Concentration, Cornea ([6]; 0.5 hour after administration): 17150 ng Equivalents [^14C]-compound of Formula I/g tissue
- Concentration, Iris-ciliary body ([6]; 0.5 hour after administration): 17550 ng Equivalents [^14C]-compound of Formula I/g tissue
- Concentration, Lens ([6]; 0.5 hour after administration): 38.8 ng Equivalents [^14C]-compound of Formula I/g tissue
- Concentration, Optic Nerve ([6]; 0.5 hour after administration): 796 ng Equivalents [^14C]-compound of Formula I/g tissue
- Concentration, Retina and Choroid (with RPE) ([6]; 0.5 hour after administration): 510 ng Equivalents [^14C]-compound of Formula I/g tissue
- Concentration, Sclera ([6]; 0.5 hour after administration): 2750 ng Equivalents [^14C]-compound of Formula I/g tissue
- Concentration, Vitreous Humor ([6]; 0.5 hour after administration): 1330 ng Equivalents [^14C]-compound of Formula I/g tissue
- Concentration, Aqueous humor ([6]; 4.0 hours after administration): 116 ng Equivalents [^14C]-compound of Formula I/g tissue
- Concentration, Conjunctiva (bulbar) ([6]; 4.0 hours after administration): 4480 ng Equivalents [^14C]-compound of Formula I/g tissue
- Concentration, Conjunctiva (palpebral) ([6]; 4.0 hours after administration): 21830 ng Equivalents [^14C]-compound of Formula I/g tissue
- Concentration, Cornea ([6]; 4.0 hours after administration): 1346 ng Equivalents [^14C]-compound of Formula I/g tissue
- Concentration, Iris-ciliary body ([6]; 4.0 hours after administration): 500 ng Equivalents [^14C]-compound of Formula I/g tissue
- Concentration, Lens ([6]; 4.0 hours after administration): 9.69 ng Equivalents [^14C]-compound of Formula I/g tissue
- Concentration, Optic Nerve ([6]; 4.0 hours after administration): 0 ng Equivalents [^14C]-compound of Formula I/g tissue
- Concentration, Retina and Choroid (with RPE) ([6]; 4.0 hours after administration): 46.7 ng Equivalents [^14C]-compound of Formula I/g tissue
- Concentration, Sclera ([6]; 4.0 hours after administration): 387 ng Equivalents [^14C]-compound of Formula I/g tissue
- Concentration, Vitreous Humor ([6]; 4.0 hours after administration): 183 ng Equivalents [^14C]-compound of Formula I/g tissue
- Urinary excretion of administered radioactivity ([6]; ocular or IV): up to 2%
- melanin binding ([6]; tissue distribution in pigmented vs albino rats): did not preferentially bind to melanin
- metabolites in pooled plasma, urine and fecal homogenates ([6]; up to 168 hrs after topical ocular or IV dose): no metabolites were isolated
- toxicity [7]: No toxicity was reported
- Schirmer Tear Test (OS) [8]: 9 mm
- Schirmer Tear Test (OS) ([8]; 672 h): 17 mm
- Schirmer Tear Test (OD), Mean ([8]; Week 1 (initial visit), Dog #1 not included): 5.5 mm
- Schirmer Tear Test (OS), Mean ([8]; Week 1 (initial visit)): 4.2 mm
- Schirmer Tear Test (OD) [8, 16]: 8 mm (2×) and 6 mm (2×) and 15 mm and 0 mm and 5 mm
- Schirmer Tear Test (OS) [8, 16]: 18 mm and 0 mm (3×) and 9 mm and 7 mm
- Schirmer Tear Test (OD), Mean ([8]; Week 2, Dog #1 not included): 7.8 mm
- Schirmer Tear Test (OS), Mean ([8]; Week 2): 4.8 mm
- Schirmer Tear Test (OS) ([8]; Week 2, individual dogs, 1% solution TID): 4 mm
- Schirmer Tear Test (OD) [8, 17]: 10 mm and 2 mm (2×) and 18 mm and 11 mm (3×)
- Schirmer Tear Test (OS) [8, 17]: 0 mm (2×) and 14 mm and 3 mm and 8 mm
- Schirmer Tear Test (OD), Mean ([8]; Week 4, Dog #1 not included): 7.0 mm
- Schirmer Tear Test (OS), Mean ([8]; Week 4): 6.7 mm
- Schirmer Tear Test (OS) ([8]; Week 4, individual dogs, 1% solution TID): 14 mm
- Schirmer Tear Test (OD) [8, 18]: 15 mm and 2 mm and 12 mm and 0 mm and 5 mm and 10 mm (2×)
- Schirmer Tear Test (OS) [8, 18]: 0 mm (2×) and 7 mm and 5 mm and 14 mm
- Schirmer Tear Test (OD), Mean ([8]; Week 8, Dog #1 not included): 8.5 mm
- Schirmer Tear Test (OS), Mean ([8]; Week 8): 6.5 mm
- Schirmer Tear Test (OS) ([8]; Week 8, individual dogs, 1% solution TID): 8 mm
- Schirmer Tear Test (OD) [8, 19]: 17 mm and 1 mm and 16 mm and 8 mm and 7 mm (2×) and 11 mm
- Schirmer Tear Test (OS) [8, 19]: 19 mm and 0 mm and 2 mm and 17 mm and 6 mm and 8 mm
- Schirmer Tear Test (OD), Mean ([8]; Week 12, Dog #1 not included): 8.8 mm
- Schirmer Tear Test (OS), Mean ([8]; Week 12): 8.7 mm
- Schirmer Tear Test (OS) ([8]; Week 12, individual dogs, 1% solution TID): 8 mm
- Schirmer Tear Test (OD) [8, 20]: 16 mm and 0 mm and 13 mm (2×) and 8 mm and 7 mm and 9 mm
- Schirmer Tear Test (OS) [8, 20]: 18 mm and 3 mm and 7 mm and 15 mm and 4 mm and 8 mm
- Schirmer Tear Test (OD), Mean ([8]; Week 16, after one month of CsA, Dog #1 and anomalous Dog #5 value not included): 11.7 mm
- Schirmer Tear Test (OS), Mean ([8]; Week 16, after one month of CsA): 11.0 mm
- Schirmer Tear Test (OD) [8, 21]: 18 mm and 12 mm (2×) and 8 mm (3×) and 22** mm
- Schirmer Tear Test (OS) [8, 21]: 18 mm and 3 mm and 5 mm and 16 mm and 7 mm and 19 mm
- Maximum-Minimum analysis, Total OD ([8]; Weeks 1-12): Total = 28
- Maximum-Minimum analysis, Total OS ([8]; Weeks 1-12): Total = 44
- Maximum-Minimum analysis, maximal change in STT, OD [8, 22]: 3 and 8 (3×) and −4 and 5
- Maximum-Minimum analysis, maximal change in STT, OS [8, 22]: 7 (2×) and 11 and 3 and 10 and 6
- average STT improvement, all 12 eyes [8, 23]: 4 mm
- average improvement in OD (right eye) STT [8, 23]: 3.3 mm
- average improvement in OS (left eye) STT [8, 23]: 4.5 mm
- Histopathological evaluation of conjunctival biopsies before and after treatment ([8]; pretreatment vs Week 12): attenuation of lymphocyte accumulation
- Schirmer test scores over pretreatment ([8]; week 12): Significant improvement
- time to maximal mean tear concentration [9]: ≤ 30 min
- solubility ([10]; ethanol/glycol/transcutol solution): 10 % (w/w)
- solubility ([10]; water/glycol/transcutol solution): 2 % (w/w)
- CNS observations [11]: Transient miosis
